# What was measured:
# human ESC = conditions: Wang C, et al. Cell Res. 2012; cited from earlier work
# human osteosarcoma cells = conditions: cited from earlier work
# ALK7 = target: T1, ALK7 (Homo sapiens, UniProt Q8NER5); conditions: cited from earlier work
# T1 sequence (Q8NER5 21-493): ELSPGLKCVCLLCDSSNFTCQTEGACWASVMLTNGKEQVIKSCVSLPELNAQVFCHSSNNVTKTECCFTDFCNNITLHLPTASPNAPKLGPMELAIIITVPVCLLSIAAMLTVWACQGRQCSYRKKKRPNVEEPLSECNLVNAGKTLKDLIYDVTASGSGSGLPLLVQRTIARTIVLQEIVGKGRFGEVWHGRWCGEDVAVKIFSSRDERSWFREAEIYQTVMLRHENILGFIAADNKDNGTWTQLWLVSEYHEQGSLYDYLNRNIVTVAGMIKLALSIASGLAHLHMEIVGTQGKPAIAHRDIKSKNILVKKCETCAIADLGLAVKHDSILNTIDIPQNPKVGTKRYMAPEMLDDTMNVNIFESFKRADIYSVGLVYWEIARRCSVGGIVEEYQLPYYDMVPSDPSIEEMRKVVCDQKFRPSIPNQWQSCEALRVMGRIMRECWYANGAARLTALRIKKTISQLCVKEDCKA
# [1] = test system: ESC-derived endothelial cells; conditions: cited from earlier work
# [2] = test system: mouse AGM VE-Cadherin+/CD45+ cells; assay: ex vivo expansion of AGM-derived embryonic HSPC, surface phenotype by FACS; assay type: cell-based; conditions: combined with Notch agonist (such as Delta1ext-IgG) and one or more growth factors
# Text: Embryos were harvested from pregnant females at 9.5 to 11.5 dpc, dissected free of maternal tissue and washed extensively in PBS containing 10% fetal bovine serum (FBS). Embryo age was precisely time by counting somite numbers. Yolks sac was dissected free from the embryo. For AGM dissections, 30 gauge needles were used to remove the caudal and rostral portions of the embryo above the forelimbs and below the hindlimbs, and subsequently dissect off the dorsal somite tissue and ventral abdominal contents. The embryo was then splayed open lying on its dorsal surface and remaining tissues surrounding the urogenital ridges were further dissected, leaving the intact AGM containing the dorsal aorta centrally. For embryos prior to AGM stage (E9.5 or less), the P-Sp region was dissected by removing the rostral and caudal portions of the embryo. Dissected yolk sac or AGM/P-Sp tissues were pooled and treated with 0.25% collagenase (Stem Cell Technologies, Vancouver, Canada) for 25-30 minutes at 37° C., pipetted to single cell suspension, and washed with PBS containing 10% FBS. For Ly6a-eGFP transgenic embryos, dissected embryos were processed separately and pooled for sorting, if indicated, following confirmation of GFP expression. […]
smiles,measurement,setting,value
"NC(=O)c1ccc(-c2nc(-c3ccc4c(c3)OCO4)c(-c3ccccn3)[nH]2)cc1 [SB431542, 4-[4-(1,3-benzodioxol-5-yl)-5-(2-pyridinyl)-1H-imidazol-2-yl]benzamide]",effect on general hematopoiesis from human ESC,human ESC,"enhance general hematopoiesis, though not engrafting HSC"
same,effect on TGF-β-induced proliferation of human osteosarcoma cells,human osteosarcoma cells,suppress
same,inhibition of ALK7,ALK7,potent and selective inhibitor
same,"effect on proliferation, differentiation and sheet formation of ESC-derived endothelial cells",[1],stimulate
same,effect on expansion of the eHSC when combined with Notch agonist and growth factors,[2],additive and/or synergistic effect
